Values quoted from earlier work, collected in article PMC4001449, “Thienoquinolines as Novel Disruptors of the PKCε/RACK2 Protein–Protein Interaction” (Journal of Medicinal Chemistry, 2014).

Tests used:
Conditions in all cases: cited from earlier work
ribonucleotide reductase = target: ribonucleotide reductase; design: method as in PMID 11668483
PKCε = target: T1, PKCε (Homo sapiens, UniProt Q02156); design: method as in PMID 21186251
T1 sequence (Q02156 1-737): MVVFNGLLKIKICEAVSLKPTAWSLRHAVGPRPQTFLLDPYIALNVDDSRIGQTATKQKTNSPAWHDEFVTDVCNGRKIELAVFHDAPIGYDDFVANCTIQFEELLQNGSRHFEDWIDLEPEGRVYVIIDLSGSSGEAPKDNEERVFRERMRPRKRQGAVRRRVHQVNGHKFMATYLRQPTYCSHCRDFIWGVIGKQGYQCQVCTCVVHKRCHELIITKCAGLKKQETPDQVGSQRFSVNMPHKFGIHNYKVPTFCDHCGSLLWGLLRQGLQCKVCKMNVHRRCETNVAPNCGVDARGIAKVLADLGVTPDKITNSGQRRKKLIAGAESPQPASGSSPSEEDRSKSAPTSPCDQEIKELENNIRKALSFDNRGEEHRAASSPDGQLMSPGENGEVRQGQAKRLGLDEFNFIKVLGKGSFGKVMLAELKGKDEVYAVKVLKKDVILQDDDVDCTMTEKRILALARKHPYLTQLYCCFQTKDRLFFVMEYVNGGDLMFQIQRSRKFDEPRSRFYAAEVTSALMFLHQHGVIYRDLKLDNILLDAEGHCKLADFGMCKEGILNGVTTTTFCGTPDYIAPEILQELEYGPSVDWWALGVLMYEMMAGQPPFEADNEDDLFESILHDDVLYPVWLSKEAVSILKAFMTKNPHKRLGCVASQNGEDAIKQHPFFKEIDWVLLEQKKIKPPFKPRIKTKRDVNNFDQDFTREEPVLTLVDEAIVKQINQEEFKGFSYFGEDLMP

PKCη = PKCη (Homo sapiens, UniProt P24723); design: method as in PMID 21186251
[1] = test system: interaction of PKCι and its adaptor protein Par6; design: method as in PMID 16861740

Chain of PKCη (P24723 whole entry): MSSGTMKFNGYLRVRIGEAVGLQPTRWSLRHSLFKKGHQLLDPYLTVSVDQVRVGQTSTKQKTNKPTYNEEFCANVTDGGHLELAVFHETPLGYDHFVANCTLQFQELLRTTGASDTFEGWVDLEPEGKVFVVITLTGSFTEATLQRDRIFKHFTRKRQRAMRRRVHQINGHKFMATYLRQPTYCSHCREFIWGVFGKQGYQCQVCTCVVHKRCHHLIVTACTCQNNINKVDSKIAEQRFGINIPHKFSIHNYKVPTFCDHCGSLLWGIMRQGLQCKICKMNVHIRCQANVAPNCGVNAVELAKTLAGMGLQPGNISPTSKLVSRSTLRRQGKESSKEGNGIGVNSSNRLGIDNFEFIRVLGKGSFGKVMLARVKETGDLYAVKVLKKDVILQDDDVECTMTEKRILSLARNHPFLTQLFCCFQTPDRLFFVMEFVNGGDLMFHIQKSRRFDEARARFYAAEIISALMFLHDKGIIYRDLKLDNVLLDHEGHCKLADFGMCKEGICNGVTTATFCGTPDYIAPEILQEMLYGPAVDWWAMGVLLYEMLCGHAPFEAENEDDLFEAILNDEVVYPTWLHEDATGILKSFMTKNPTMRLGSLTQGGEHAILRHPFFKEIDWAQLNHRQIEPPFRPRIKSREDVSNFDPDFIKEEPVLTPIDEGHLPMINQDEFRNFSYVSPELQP

hydroxyurea
IC50 (ribonucleotide reductase): 37.2 µM

O=C1NC(=O)N(Cc2ccccc2)C(=O)/C1=C\c1ccc2c(c1)OCO2 [BAS 02104951]
Direct inhibition of PKCε (PKCε): inhibited
Direct inhibition of PKCη (PKCη): inhibited

O=C(O)CC([S-])C(=O)O.[Au+] (stereo not shown) [aurothiomalate]
Active concentration range, prevention of PKCι/Par6 interaction [1]: ~10 µM
